Experimental data taken from US10105414B2, “Peptides derived from RS1 which down-regulate glucose absorption after a glucose rich meal and increase insulin sensitivity” (Julius-Maximilians-Universität Würzburg, priority 2014, dated 2018).
Where two headings read alike, the source gives them in different places. Blank lines part the entries; values can stand above or below the molecule they belong to.

Assays:
ODC [1] = biological target: T1, ODC (Homo sapiens, UniProt P11926); assay: Activity of purified ODC (released CO2); format: biochemical; conditions: 100 μM tripeptide, 80 ng purified ODC, 1 h, 37° C.
T1 sequence (P11926 1-461): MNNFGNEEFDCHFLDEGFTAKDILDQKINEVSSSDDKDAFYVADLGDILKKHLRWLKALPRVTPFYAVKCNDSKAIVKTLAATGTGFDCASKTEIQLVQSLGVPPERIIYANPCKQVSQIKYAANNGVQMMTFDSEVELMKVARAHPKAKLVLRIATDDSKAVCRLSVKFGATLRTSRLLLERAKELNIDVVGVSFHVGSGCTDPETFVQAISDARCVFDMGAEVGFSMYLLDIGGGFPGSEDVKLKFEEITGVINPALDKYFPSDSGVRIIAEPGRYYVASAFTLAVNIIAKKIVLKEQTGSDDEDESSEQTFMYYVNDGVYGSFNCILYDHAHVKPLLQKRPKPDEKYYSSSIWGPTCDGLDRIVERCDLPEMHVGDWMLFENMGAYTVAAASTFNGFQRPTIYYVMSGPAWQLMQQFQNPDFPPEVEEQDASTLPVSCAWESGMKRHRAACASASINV

hCNT3 = assay: hCNT3-mediated uridine uptake in Xenopus laevis oocytes after injection of peptides; format: cell-based, human; conditions: low intracellular glucose, no AMG injected
Description: FIG. 9. […] Posttransciptional downregulation of hCNT1 and hCNT3 was measured without injection of AMG. […] One hour later uptake of 5 μM [^3H]uridine was measured.
(§1) Before uptake measurements were started, 50 nl of K-Ori buffer containing peptides, polypeptides, 1 pM of calmodulin stimulated kinase 2 (CK2) inhibitor KN93 (Calbiochem San Diego. Calif.), 3 mM of the omithinedecarboxlase inhibitor difluoromethylornithine DFMO and/or or 100 pmol α-methyl-α-D-glucopyranoside (AMG) were injected and the oocytes were incubated for 1 h at room temperature. Uptake was measured in Ori buffer at room temperature. Measurements in transporter expressing oocytes were corrected for measurements in noninjected oocytes. Uptake of 50 μM [^14C]AMG was measured after 15 min incubation and washing in ice-cold Ori buffer containing 1 mM phlorizin. Uptake of 5 μM [^3H]uridine was measured after 15 min incubation and washing in ice-cold Ori buffer. Oocytes were solubilized in 5% (w/v) SDS and analyzed for radioactivity by scintillation counting.

mSGLT1 [2] = conditions: RS1−/− mice starved over night; gavage 20 μmol per mouse; after 2 h
Description: (§2) For measurement of SGLT1 mediated glucose uptake, the everted segments of mouse small intestine or defined areas of human mucosa were incubated for 2 min at 37° C. with Krebs-Ringer buffer containing 10 μM [^14C]AMG with or without 0.2 mM phlorizin. Uptake was stopped by transferring the segments into ice cold Krebs-Ringer buffer containing 0.2 mM phlorizin for 5 min. After washing with ice cold Krebs-Ringer buffer the intestinal segments or pieces of human mucosa were dissolved in 0.5 ml Soluence-350) (Perkin Elmer Inc. Waltham Mass., USA). Radioactivity was analysed by liquid scintillation counting. Phlorizin inhibited AMG uptake per cm length or per standard area of the mucosa was calculated.
(§3) After 2 h the animals were killed, their small intestines were everted and phlorizin inhibited uptake of 10 μM [^14C]AMG Into segments of the everted jejunum was measured (FIG. 12A).

hSGLT1 [3] = assay: hSGLT1-mediated AMG uptake in Xenopus laevis oocytes 1 h after injection of peptides; format: cell-based, human; conditions: for down-regulation of hSGLT1 when putrescine was added: intracellular concentration 1 μM
Description: (§4) Selected oocytes were injected with 50 nl of water containing cRNAs (2.5 ng of hSGLT1 or 0.5 ng of hCNT1). For expression oocytes were incubated for 2-3 days at 16° C. in modified Barth's solution with gentamycin. Noninjected control oocytes were incubated in parallel.
as §1
(§5) For comparison of mean values from 2 groups the Student's t-test for unpaired samples was employed.

mSGLT1 [4] = system: mSGLT1
Description: (§6) Standardised t areas of human small intestinal mucosa (FIGS. 13,19) or 1 cm segments of everted mouse small intestine (FIGS. 14,15,20) were washed three times at 37° C. with Krebs-Ringer buffer containing 5 mM D-glucose and incubated for 30 min at 37° C. in Krebs-Ringer buffer containing 5 mM D-glucose plus different concentrations of tripeptides. Thereafter the tissue was washed three times at 0° C. in Krebs-Ringer buffer without glucose and uptake measurements were performed.
as §2
Thereafter the segments were washed with PBS buffer and phlorizin inhibited uptake of 10 μM [^14C]AMG was measured.

hSGLT1 [5] = conditions: 30 min; for down-regulation of hSGLT1 mediated AMG uptake: 5 mM D-glucose
Description: Jejunal segments which were routinely dissected during bariatric operations of highly obese patients were stored for 1-3 h on ice in Dulbecco's modified Eagle's medium containing 5 mM D-glucose. The mucosa was isolated and circular areas of the mucosa were dissected using a punching instrument.
as §6, §2
Next, it was investigated which of the QXP-type tripeptides are capable to downregulate hSGLT1 expression in human small intestine in the presence of high glucose. Jejunal samples that were obtained during bariatric surgery of obese patients (males and females with a mean age of 50 years with a mean body mass index of 50) were used. […] A part of the jejumum which is routinely removed during bariatric surgery, was carried to the laboratory using ice-cold culture medium containing 6 mM D-glucose. Part of the mucosa was dissected and identical areas of the mucosa were isolated using a punching instrument. The mucosal pieces were washed with glucose free buffer and incubated for 30 min at 37° C. in tissue culture medium (pH 6.4) containing 5 mM D-glucose and different QXP-type tripeptides. Thereafter the sample were washed two times with PBS buffer (pH 7.4, 37° C.) and incubated for 2 min at 37° C. in PBS (pH 7.4) containing 100 mM sodium and 10 μM [^14C]AMG. The incubation was performed in the absence and presence of 200 μM of the SGLT1 inhibitor phlorizin. Thereafter the samples were washed with ice-cold PBS, the tissue was dissolved, and radioactivity was determined by liquid scintillation counting. The phorizin inhibited AMG uptake was calculated.

[6] = RS1−/− mice; gavage 20 μmol QEP before 40% D-glucose gavage
Description: Blood (2 μL) was collected from the tail vein and analysed using the amperometric glucose oxidase method (glucose meter, ACCU-CHEK Aviva). Blood insulin-Insulin was determined using the rat C-peptide ELISA from Mercodia (Uppsala, Sweden) which is based on the sandwich technique using two monoclonal antibodies directed against two different antigenic determinants on the C-peptide.
as §3

hCNT1 = assay: hCNT1-mediated uridine uptake in Xenopus laevis oocytes after injection of peptides; format: cell-based, human; conditions: for uptake of 5 μM [3H]uridine expressed by hCNT1: low intracellular glucose, no AMG injected
Description: as §4, §1, §5

ODC [7] = biological target: T1, ODC; assay: Two-hybrid screening and immunocoprecipitation; format: binding; conditions: data not shown
Description: (§7) Employing two-hybrid screening and immunocoprecipitation experiments evidence was provided that hRS1-Reg binds to ODC (data not shown). It was shown that the release of SGLT1 containing vesicles from the Golgi apparatus was blocked by specific ODC Inhibitor difluoromethylornithine (DFMO) and that the DFMO effect was blunted when putrescine was added (FIG. 23A). Since hRS1-Reg and DFMO down-regulate hSGLT1 to a similar degree and the down-regulations were not additive, RS1-Reg and ODC employ the same pathway for down-regulation of hSGLT1.

ODC [8] = biological target: T1, ODC; assay: ODC activity (released CO2) in HEK293 cells transfected with ODC; format: cell-based; parameters: expressed in transfected cells; host or cells: HEK293
Description: FIG. 23. […] Expressed uptake of 25 μM [^14C]AMG was measured 1 h later as FIG. 2. In A-C mean value±SE of 24-30 oocytes from three independent experiments are presented. D) HEK293 cells were transiently transfected with ODC, ODC plus hRS1-Reg or with ODC plus control vector. […] In D and E mean values±SE from 3-5 independent experiments are indicated. ***P<0.001 for difference to controls measured by ANOVA with posthoc Tukey comparison.
as §7

[9] = without injection of AMG (intracellular AMG <10 μM)

inhibition of ODC activity (ODC [1]): not
Molecule: PEQ: reverse tripeptide PEQ as control [reference compound]

Molecule: glutamine-glutamic acid-proline [QEP]
uptake of 5 μM [3H]uridine expressed by hCNT3 (hCNT3): not able to inhibit | decrease of phlorizin inhibited uptake of 10 μM [14C]AMG into everted jejunum (mSGLT1 [2]): about 30% | affinity at high intracellular glucose higher than affinity of QSP at low intracellular glucose (hSGLT1 [3]): about 1000 times | degree of down-regulation of hSGLT1 (hSGLT1 [3]; 5 pM, intracellular AMG ~0.25 mM): ~45% | inhibition of SGLT1 mediated transport (hSGLT1 [3]; 50 nM tripeptide, no AMG injected): inhibition | increase of affinity (decrease of IC50) for down-regulation of hSGLT1 at high versus low intracellular AMG (hSGLT1 [3]; intracellular AMG ~250 μM versus low): more than 15000 fold | down-regulation of hSGLT1 when putrescine was added (hSGLT1 [3]): blunted | inhibition of SGLT1 expression (hSGLT1 [3]; with injection of AMG (intracellular AMG ~0.25 mM)): about 50% | down-regulation / inhibition of hSGLT1-mediated AMG uptake (hSGLT1 [3]; [9]): about 40% | IC50 (hSGLT1 [3]; without injection of AMG (intracellular AMG <10 μM), read-out: IC50 for down-regulation of hSGLT1-mediated AMG uptake): 7.9 nM | insulin sensitivity (NZO mice, 5 mM QEP in drinking water): increased | SGLT1-mediated AMG transport into enterocytes and glucose absorption during an OGTT (mouse, in vivo): not decreased | decrease of basal concentration of insulin in the serum (mouse, in vivo): 50% | increase and decrease of serum glucose after gavage with glucose (mouse, in vivo): no effect | increase of serum insulin after gavage with glucose (mouse, in vivo): decreased | inhibition of ODC activity (ODC [1]): about 40% | effect on SGLT1 mediated AMG uptake, first series of experiments (mSGLT1 [4]): no effect | down-regulation of hSGLT1 mediated AMG uptake (hSGLT1 [5]; 0.1 mM): not statistically significant | down-regulation of hSGLT1 mediated AMG uptake (hSGLT1 [5]; 0.5 mM): not statistically significant | down-regulation of hSGLT1 mediated AMG uptake (hSGLT1 [5]; 1 mM): 40% | SGLT1 mediated AMG uptake at low intracellular glucose (hSGLT1 [5]; 5 mM QEP in PBS without glucose, data not shown): did not decrease | down-regulation of hSGLT1 mediated AMG uptake (hSGLT1 [5]; 15 mM): 75% | plasma D-glucose 15 min after glucose gavage [6]: significantly reduced | uptake of 5 μM [3H]uridine expressed by hCNT1 (hCNT1): not able to inhibit

binding to ODC (ODC [7]): binds to ODC | ODC activity when hRS1-Reg was coexpressed (ODC [8]): decreased | IC50 (hCNT1; without injection of AMG, read-out: IC50 for down-regulation of hCNT1-mediated uridine uptake): 126 ± 6 nM
B1: hRS1-Reg: regulatory domain of RS1 from human comprising amino acids 16-98 of hRS1 (SEQ ID No. 6) (protein, listed as Homo sapiens)
chain: SSGQSPDVGNPMSLARSVSASVCPIKPSDSDRIEPKAVKALKASAEFQLNSEKKEHLSLQDLSDHASSADHAPTDQSPAMPMQ
uptake of 5 μM [3H]uridine expressed by hCNT3 (hCNT3): decreased | down-regulation of hSGLT1 by hRS1-Reg together with DFMO (hSGLT1 [3]; DFMO intracellular concentration 3 mM): not additive | affinity for down-regulation of hSGLT1 when CK2 is blocked by inhibitor KN93 (hSGLT1 [3]; co-injected KN93, no AMG injected): largely increased | effect of intracellular AMG on the affinity for down-regulation of hSGLT1 after inhibition of CK2 (hSGLT1 [3]; co-injected KN93, with AMG): drastically decreased | down-regulation of hSGLT1 when putrescine was added (hSGLT1 [3]): blunted | down-regulation / inhibition of hSGLT1-mediated AMG uptake (hSGLT1 [3]; [9]): about 50% | effect of 250 μM intracellular AMG on affinity for down-regulation of hCNT1 (hCNT1; intracellular AMG 250 μM): not altered | uptake of 5 μM [3H]uridine expressed by hCNT1 (hCNT1): decreased | down-regulation of hCNT1 (hCNT1; without injection of AMG): about 50%
